Structures can show the parent of a compound that is named as a salt.
The compounds below were run against Full-length PRMT5 enzyme (NCBI Reference sequence NP_006100.2) co-expressed with His6-MEP50 (Homo sapiens (Human), UniProt O14744) (assay: Revised PRMT5 Biochemical Assay). Conditions: 1 μM peptide substrate, 1 μM S-Adenosyl methionine, 4 hours at 37 degree Celsius, Transcreener EPIGEN fluorescence polarisation.
Procedure: Compounds of the invention may be tested for in vitro activity in the following assay: A histone H4 derived peptide is used as substrate (amino acid sequence: […]N H2). Full-length PRMT5 enzyme (NCBI Reference sequence NP_006100.2) was co-expressed with His6-MEP50 in insect cells and purified via Nickel immobilized metal affinity and gel filtration chromatography (“the enzyme”).
The 6 μL reactions are run in Greiner brand black 384-well low volume assay plates. All reactions contained assay buffer (phosphate buffered saline, 0.01% (v/v) Tween-20, 0.01% (w/v) albumin from chicken egg white, 1 mM Dithiothreitol, 1 μM peptide substrate, 1 μM S-Adenosyl methionine, and 15 ng/reaction enzyme, with the enzyme being omitted from negative control reactions. Compounds were added in a volume of 100 nL from dilution series prepared in DMSO, positive and negative control reactions receiving the same volume DMSO without compound. The plates were sealed with adhesive seals and incubated for 4 hours at 37 degree Celsius. Reaction progress was measured using the Transcreener™ EPIGEN methyltransferase assay (BellBrook Labs, Madison, Wis.) as recommended by the manufacturer. To each reaction 2 μL detection mix were added, containing coupling enzymes, fluorescence polarisation tracer, and AMP antibody. Plates were incubated for 90 minutes before being read on a PerkinElmer EnVision™ plate reader in fluorescence polarisation mode. IC50 values were obtained from the raw readings by calculating percent inhibition (%1) for each reaction relative to controls on the same plate (% I=(I−CN)/(CP−CN) where CN/CP are the averages of the negative/positive reactions, respectively), then fitting the %1 data vs. compound concentration [I] to % I=(A+((B−A)/(1+((C/[I])^D)))) where A is the lower asymptote, B is the upper asymptote, C is the IC50 value, and D is the slope.

Chain of Full-length PRMT5 enzyme (NCBI Reference sequence NP_006100.2) co-expressed with His6-MEP50 (O14744 whole entry): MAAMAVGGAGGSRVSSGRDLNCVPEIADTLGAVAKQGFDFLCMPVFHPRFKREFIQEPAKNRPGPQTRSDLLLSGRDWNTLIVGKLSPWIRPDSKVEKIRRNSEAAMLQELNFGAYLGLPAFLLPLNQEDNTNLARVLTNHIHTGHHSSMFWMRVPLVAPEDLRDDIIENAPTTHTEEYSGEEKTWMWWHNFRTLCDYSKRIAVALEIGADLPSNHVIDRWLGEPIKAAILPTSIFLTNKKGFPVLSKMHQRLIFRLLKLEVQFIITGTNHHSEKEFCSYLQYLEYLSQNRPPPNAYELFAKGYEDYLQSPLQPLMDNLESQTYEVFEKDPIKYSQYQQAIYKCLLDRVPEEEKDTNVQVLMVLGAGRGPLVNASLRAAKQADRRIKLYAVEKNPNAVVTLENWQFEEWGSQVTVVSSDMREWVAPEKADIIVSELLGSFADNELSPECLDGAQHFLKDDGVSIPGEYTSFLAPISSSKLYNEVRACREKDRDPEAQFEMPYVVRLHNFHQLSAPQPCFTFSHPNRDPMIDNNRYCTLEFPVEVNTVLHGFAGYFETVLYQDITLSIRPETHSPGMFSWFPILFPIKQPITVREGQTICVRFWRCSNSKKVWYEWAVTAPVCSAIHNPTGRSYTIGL
Chain of Full-length PRMT5 enzyme (NCBI Reference sequence NP_006100.2) co-expressed with His6-MEP50 (Q9BQA1 whole entry partner): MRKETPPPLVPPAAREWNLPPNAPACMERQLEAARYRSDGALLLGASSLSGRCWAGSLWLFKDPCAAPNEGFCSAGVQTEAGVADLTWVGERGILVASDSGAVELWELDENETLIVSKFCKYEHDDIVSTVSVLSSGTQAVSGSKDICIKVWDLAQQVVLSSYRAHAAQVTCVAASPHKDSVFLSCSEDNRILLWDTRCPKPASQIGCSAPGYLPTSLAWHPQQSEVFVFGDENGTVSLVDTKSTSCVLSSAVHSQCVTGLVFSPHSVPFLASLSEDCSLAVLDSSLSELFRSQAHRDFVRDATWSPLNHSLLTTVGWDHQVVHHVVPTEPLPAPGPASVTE

| IC50 | SMILES |
| --- | --- |
| 657 nM | O=C(NC[C@@H](O)[C@@H]1Cc2ccccc2CN1)c1ccc(OCC2CC2)nc1 [Example 58, 6-(Cyclopropylmethoxy)-N-((R)-2-hydroxy-2-((S)-1,2,3,4-tetrahydroisoquinolin-3-yl)ethyl)nicotinamide] |
| 230 nM | O=C(NC[C@@H](O)[C@@H]1Cc2ccccc2CN1)c1ccc(Cl)nc1 [Example 98, 6-Chloro-N—((R)-2-hydroxy-2-((S)-1,2,3,4-tetrahydroisoquinolin-3-yl)ethyl)nicotinamide hydrochloride] |
| 383 nM | O=C(NCc1ccccn1)c1ccc(C(=O)NC[C@@H](O)[C@@H]2Cc3ccccc3CN2)cc1 [Example 56, N^1-((R)-2-Hydroxy-2-((S)-1,2,3,4-tetrahydroisoquinolin-3-yl)ethyl)-N^4-(pyridin-2-ylmethly)terephthalamide] |
| 4670 nM | Nc1ccc(C(=O)NC[C@@H](O)[C@@H]2Cc3ccccc3CN2)cn1 [Example 111, 6-Amino-N-((R)-2-hydroxy-2-((S)-1,2,3,4-tetrahydroisoquinolin-3-yl)ethyl)nicotinamide dihydrochloride] |
| 51100 nM | O=C(NC[C@@H](O)[C@@H]1Cc2ccccc2CN1)c1ccccc1C(F)(F)F [Example 5, N-((R)-2-Hydroxy-2-((S)-1,2,3,4-tetrahydroisoquinolin-3-yl)ethyl)-2-(trifluoromethyl)benzamide] |
| 203 nM | CCOc1cc(-c2nnc(C)o2)ccc1C(=O)NC[C@@H](O)[C@@H]1Cc2ccccc2CN1 [Example 89, 2-Ethoxy-N-((R)-2-hydroxy-2-((S)-1,2,3,4-tetrahydroisoquinolin-3-yl)ethyl)-4-(5-methyl-1,3,4-oxadiazol-2-yl)benzamide] |
| 104 nM | CC(C)OC(=O)N1CCC(Oc2cc(C(=O)NC[C@@H](O)[C@@H]3Cc4ccccc4CN3)ccn2)CC1 [Example 61, Isopropyl 4-((4-(((R)-2-hydroxy-2-((S)-1,2,3,4-tetrahydroisoquinolin-3-yl)ethyl)carbamoyl)pyridin-2-yl)oxy)piperidine-1-carboxylate] |
| 688 nM | CC(NC(=O)c1ccc(C(=O)N2CCOCC2)cc1)[C@@H](O)[C@@H]1Cc2ccccc2CN1 (stereo partly drawn) [Example 109, N-((1R)-1-Hydroxy-1-((S)-1,2,3,4-tetrahydroisoquinolin-3-yl)propan-2-yl)-4-(morpholine-4-carbonyl)benzamide hydrochloride] |
| 939 nM | COc1cc(C(=O)NC[C@@H](O)[C@@H]2Cc3ccccc3CN2)ccn1 [Example 71, N-((R)-2-Hydroxy-2-((S)-1,2,3,4-tetrahydroisoquinolin-3-yl)ethyl)-2-methoxyisonicotinamide dihydrochloride] |
| 546 nM | O=C(NC[C@@H](O)[C@@H]1Cc2ccccc2CN1)c1cc(NC2COC2)ncn1 [Example 107, N—((R)-2-Hydroxy-2-((S)-1,2,3,4-tetrahydroisoquinolin-3-yl)ethyl)-6-(oxetan-3-ylamino)pyrimidine-4-carboxamide] |
| 230 nM | O=C(NC[C@@H](O)[C@@H]1Cc2ccccc2CN1)c1ccc(C(=O)N2CCC(C(F)F)CC2)cc1 [Example 46, 4-(4-(Difluoromethyl)piperidine-1-carbonyl)-N-((R)-2-hydroxy-2-((S)-1,2,3,4-tetrahydroisoquinolin-3-yl)ethyl)benzamide] |
| 127 nM | O=C(NC[C@@H](O)[C@@H]1Cc2ccccc2CN1)c1ccc(OC2CCNCC2)nc1 [Example 99, N—((R)-2-Hydroxy-2-((S)-1,2,3,4-tetrahydroisoquinolin-3-yl)ethyl)-6-(piperidin-4-yloxy)nicotinamide trihydrochloride] |
| 22500 nM | Cc1ccccc1C(=O)NC[C@@H](O)[C@@H]1Cc2ccccc2CN1 [Example 10, N-((R)-2-Hydroxy-2-((S)-1,2,3,4-tetrahydroisoquinolin-3-yl)ethyl)-2-methylbenzamide] |
| 2830 nM | O=C(NC[C@@H](O)[C@@H]1Cc2ccccc2CN1)c1cc(Cl)nc(OC2COC2)c1 [Example 115, 2-Chloro-N-((R)-2-hydroxy-2-((S)-1,2,3,4-tetrahydroisoquinolin-3-yl)ethyl)-6-(oxetan-3-yloxy)isonicotinamide dihydrochloride] |
| 152 nM | CC(=O)N1CCC(NC(=O)c2ccc(C(=O)NC[C@@H](O)[C@@H]3Cc4ccccc4CN3)cc2)CC1 [Example 35, N^1-(1-Acetylpiperidin-4-yl)-N^4-((R)-2-hydroxy-2-((S)-1,2,3,4-tetrahydroisoquinolin-3-yl)ethyl)terephthalamide] |
| 2270 nM | O=C(NC[C@@H](O)[C@@H]1Cc2ccccc2CN1)c1ccnc(C2CCOCC2)c1 [Example 73, N-((R)-2-Hydroxy-2-((S)-1,2,3,4-tetrahydroisoquinolin-3-yl)ethyl)-2-(tetrahydro-2H-pyran-4-yl)isonicotinamide dihydrochloride] |
| 245 nM | O=C(NC[C@@H](O)[C@@H]1Cc2ccccc2CN1)c1ccnc(OCC(F)(F)F)c1 [Example 63, N-((R)-2-hydroxy-2-((S)-1,2,3,4-tetrahydroisoquinolin-3-yl)ethyl)-2-(2,2,2-trifluoroethoxy)isonicotinamide] |
| 18700 nM | CC(C)NC(=O)c1ccc(C(=O)NC[C@@H](O)[C@@H]2Cc3ccccc3CN2)cc1 [Example 97, N^1-((R)-2-Hydroxy-2-((S)-1,2,3,4-tetrahydroisoquinolin-3-yl)ethyl)-N^4-isopropylterephthalamide] |
| 1700 nM | O=C(NC[C@@H](O)[C@@H]1Cc2ccccc2CN1)c1cccnc1 [Example 78, N-((R)-2-Hydroxy-2-((S)-1,2,3,4-tetrahydroisoquinolin-3-yl)ethyl)nicotinamide dihydrochloride] |
| 705 nM | O=C(NC[C@@H](O)[C@@H]1Cc2ccccc2CN1)c1ccc(C(=O)N2CCCOCC2)cc1 [Example 40, N-((R)-2-Hydroxy-2-((S)-1,2,3,4-tetrahydroisoquinolin-3-yl)ethyl)-4-(1,4-oxazepane-4-carbonyl)benzamide] |
| 45800 nM | O=C(NC[C@@H](O)[C@@H]1Cc2ccccc2CN1)c1ccccc1OC(F)(F)F [Example 6, N-((R)-2-Hydroxy-2-((S)-1,2,3,4-tetrahydroisoquinolin-3-yl)ethyl)-2-(trifluoromethoxy)benzamide] |
| 3330 nM | O=C(NC[C@H](O)[C@@H]1Cc2ccccc2CN1)c1ccc(C(=O)N2CCOCC2)cc1 [Example 52, N—((S)-2-Hydroxy-2-((S)-1,2,3,4-tetrahydroisoquinolin-3-yl)ethyl)-4-(morpholine-4-carbonyl)benzamide hydrochloride] |
| 1390 nM | CN1CCN(C(=O)c2ccc(C(=O)NC[C@@H](O)[C@@H]3Cc4ccccc4CN3)cc2)CC1=O [Example 41, N-((R)-2-Hydroxy-2-((S)-1,2,3,4-tetrahydroisoquinolin-3-yl)ethyl)-4-(4-methyl-3-oxopiperazine-1-carbonyl)benzamide] |
| 70 nM | O=C(NC[C@@H](O)[C@@H]1Cc2ccccc2CN1)c1ccnc(OC2CCN(CC(F)(F)F)CC2)c1 [Example 124, N—((R)-2-Hydroxy-2-((S)-1,2,3,4-tetrahydroisoquinolin-3-yl)ethyl)-2-((1-(2,2,2-trifluoroethyl)piperidin-4-yl)oxy)isonicotinamide] |
| 662 nM | O=C(NC[C@@H](O)[C@@H]1Cc2ccccc2CN1)c1csc(-c2ccccc2)n1 [Example 16, N-((R)-2-Hydroxy-2-((S)-1,2,3,4-tetrahydroisoquinolin-3-yl)ethyl)-2-phenylthiazole-4-carboxamide] |
| 12500 nM | O=C(NC[C@@H](O)[C@@H]1Cc2ccccc2CN1)c1ccccc1F [Example 9, 2-Fluoro-N-((R)-2-hydroxy-2-((S)-1,2,3,4-tetrahydroisoquinolin-3-yl)ethyl)benzamide] |
| 1110 nM | CC(=O)N1CCC(Oc2cc(C(=O)NC[C@@H](O)[C@@H]3Cc4ccccc4CN3)cnn2)CC1 [Example 116, 6-((1-Acetylpiperidin-4-yl)oxy)-N-((R)-2-hydroxy-2-((S)-1,2,3,4-tetrahydroisoquinolin-3-yl)ethyl)pyridazine-4-carboxamide dihydrochloride] |

| SMILES | IC50 |
| --- | --- |
| COC1CC2CCC(C1)N2C(=O)c1ccc(C(=O)NC[C@@H](O)[C@@H]2Cc3ccccc3CN2)cc1 (stereo partly drawn) [Example 38, N-((R)-2-Hydroxy-2-((S)-1,2,3,4-tetrahydroisoquinolin-3-yl)ethyl)-4-(3-methoxy-8-azabicyclo[3.2.1]octane-8-carbonyl)benzamide] | 599 nM |
| COc1cc(C(=O)N2C3CCC2COC3)ccc1C(=O)NC[C@@H](O)[C@@H]1Cc2ccccc2CN1 [Example 87, 4-(3-Oxa-8-azabicyclo[3.2.1]octane-8-carbonyl)-N-((R)-2-hydroxy-2-((S)-1,2,3,4-tetrahydroisoquinolin-3-yl)ethyl)-2-methoxybenzamide hydrochloride] | 57 nM |
| CCOc1nc(C(=O)N2C3CCC2COC3)ccc1C(=O)NC[C@@H](O)[C@@H]1Cc2ccccc2CN1 [Example 70, 6-(3-Oxa-8-azabicyclo[3.2.1]octane-8-carbonyl)-2-ethoxy-N-((R)-2-hydroxy-2-((S)-1,2,3,4-tetrahydroisoquinolin-3-yl)ethyl)nicotinamide] | 121 nM |
